From ChEMBL document CHEMBL1148302, “Discovery of diarylacrylonitriles as a novel series of small molecule sortase A inhibitors” (J Med Chem, 2004) come the findings set out here.

The structures appear in SMILES notation.

The test deals with T1, Sortase A (Staphylococcus aureus, UniProt Q9S446).
T1 sequence (Q9S446 whole entry): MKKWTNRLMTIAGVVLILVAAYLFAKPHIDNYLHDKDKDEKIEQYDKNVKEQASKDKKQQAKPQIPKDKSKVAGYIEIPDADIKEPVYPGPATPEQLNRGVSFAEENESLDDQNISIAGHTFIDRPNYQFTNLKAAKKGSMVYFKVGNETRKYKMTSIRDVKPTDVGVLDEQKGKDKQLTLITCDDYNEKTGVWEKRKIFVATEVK
Kind of test: Inhibitory activity towards SrtA (sortase A).

As for `COc1ccc(CCc2ccc(OC)cc2)cc1`, the IC50 (commonly the concentration that gives 50% inhibition) was more than 1000 µM.

For the compound `COc1ccc(/C=C(/C(=O)O)c2ccc(OC)cc2)cc1`, the IC50 was more than 1000 µM.

For `COc1ccc(/C=C/c2ccc(OC)cc2)cc1`, the IC50 is more than 1000 µM.

Consider `COC(=O)/C(=C/c1ccc(OC)cc1)c1ccc(OC)cc1`, for which the IC50 stood at 231 µM.

As to `COc1ccc(/C=C(/C#N)c2ccc(OC)cc2)cc1`, it took 187 µM to reach half-maximal inhibition (IC50).

Turning to `COC(=O)/C(=C\c1ccc(OC)cc1)c1ccc(OC)cc1`, the IC50 was 909 µM.

As for `COc1ccc(CC(C#N)c2ccc(OC)cc2)cc1` (stereo unspecified), the IC50 was more than 1000 µM.

For the compound `COc1ccc(/C=C(/C(N)=O)c2ccc(OC)cc2)cc1`, the IC50 came out at 476 µM.

Consider `COC(=O)C(Cc1ccc(OC)cc1)c1ccc(OC)cc1` (stereo unspecified), for which the IC50 is more than 1000 µM.

Turning to `COc1ccc(/C=C\c2ccc(OC)cc2)cc1`, the IC50 was more than 1000 µM.

On to `COc1ccc(/C(C#N)=C/c2cc(OC)ccc2OC)cc1`, for which the IC50 amounted to 9.24 µM.

Compound `COc1ccc(/C(C#N)=C/c2cccc(OC)c2)cc1` registered an IC50 of 17.4 µM.

For `COc1ccc(/C(C#N)=C/c2ccc(OC)c(OC)c2)cc1`, the IC50 turned out to be 23 µM.

Take `COc1ccc(/C(C#N)=C/c2ccccc2OC)cc1`: half-maximal inhibition (IC50) was put at 36.2 µM.

Turning to `COc1ccc(/C=C(\C#N)c2ccc(OC)cc2)cc1`, the IC50 turned out to be 27.9 µM.

For the compound `COc1ccc(/C(C#N)=C/c2cc(OC)cc(OC)c2)cc1`, the IC50 came out at 25.5 µM.
